Laboratory results: patent US20230310455A1, “COMBINATION THERAPIES FOR TREATMENT OF HER2 CANCER” (Genentech, Inc., priority 2020, published 2023)

What was measured:
[1] = system: KPL-4 (HER2-positive, PIK3CA H1047R) breast cancer xenograft; assay: In vivo tumor growth inhibition, KPL-4 breast cancer xenograft model; conditions: inavolisib 25 mg/kg orally daily 28 days, trastuzumab 3 mg/kg and pertuzumab 2.5 mg/kg i.p. weekly 4 weeks
Method: The in vivo efficacy of the test compounds and combinations was tested in a KPL-4 (HER2-positive, PIK3CA H1047R) breast cancer xenograft model. […] Tumor volumes were measured using Ultra Cal-IV calipers (Model 54-10-111; Fred V. Fowler Co.; Newton, MA). The following formula was used in Excel, version 11.2 to calculate tumor volume: Tumor Volume (mm^3)=(Length×Width^2)×0.5. Mice for efficacy studies were distributed into 8-10 mice/group with a mean tumor volume of 200 to 250 mm^3 at the initiation of dosing. A linear mixed effect (LME) modeling approach was used to analyze the repeated measurement of tumor volumes from the same animals over time (Pinheiro et al., “Linear and Nonlinear Mixed Effects Models” R package version 3; 1-131 (2017)). Cubic regression splines were used to fit a non-linear profile to the time courses of log^2 tumor volume at each dose level. These non-linear profiles were then related to dose within the mixed model. Tumor growth inhibition as a percentage of vehicle control (%TGI) was calculated as the percentage of the area under the fitted curve (AUC) for the respective dose group per day in relation to the vehicle, using the following formula: %TGI=100×(1−AUCdose/AUCvehicle).
Tumor sizes and mouse body weights were recorded twice weekly, and mice with tumor volume exceeding 2000 mm^3 or body weight loss of 20% of starting weight were promptly euthanized.

[2] = target: Class I PI3K alpha isoform (PI3Kα) versus Class I PI3K beta, delta, and gamma isoforms (Homo sapiens, UniProt P42336); conditions: cited from earlier work
[3] = system: HER2 negative (PIK3CA-mutant) breast cancer cell lines; assay: Viability assay (CellTiter-Glo), HER2 negative breast cancer cell lines; type: cell-based; conditions: viability by ATP quantification
Text: (§1) In a cell proliferation assay, we investigated the effect of inavolisib and alpelisib (both PI3Kα specific inhibitors) on vialibility of breast cancer cell lines having different HER2 expression and PIK3CA mutant status. Unexpectedly, we observed a significant difference between the sensitivity of inavolisib and alpelisib in HER2 amplified (˜20 fold difference between the mean IC50 values) versus HER2 negative cell lines (˜6-fold difference between two inhibitors). Both inhibitors were not differentiated in wild-type (WT) cell lines regardless of HER2 status (FIG. 1).
(§2) Cell lines were obtained from the ATCC. All cell lines underwent authentication by Short Tandem Repeat profiling, SNP fingerprinting, and mycoplasma testing (Yu M. et al. “A resource for cell line authentication, annotation and quality control” Nature 520, 307-311 (2015)). Cell lines were grown under standard tissue-culture conditions in RPMI media with 10% fetal bovine serum (Gibco, 10082-147), 100 U/mL penicillin-streptomycin (Gibco, 15140-122), 2 mmol/L L-glutamine (Gibco, 15030-081). […]
(§3) Viability assay: Cells were seeded (1000-2000 cells/well) in 384-well plates for 16 hours. […] After 4 days, relative numbers of viable cells were measured by luminescence using CellTiter-Glo® (Promega) according to the manufacturer's instructions and read on a Wallac Multilabel Reader (PerkinElmer, Foster City). […]

[4] = system: HER2 amplified (HER2-positive PIK3CA-mutant) breast cancer cell lines; assay: Viability assay (CellTiter-Glo), HER2 amplified breast cancer cell lines; type: cell-based; conditions: viability by ATP quantification
Text: as §1, §2, §3

Class I PI3K alpha isoform (PI3Kα) versus Class I PI3K beta, delta, and gamma isoforms, sequence (P42336 whole entry, canonical isoform): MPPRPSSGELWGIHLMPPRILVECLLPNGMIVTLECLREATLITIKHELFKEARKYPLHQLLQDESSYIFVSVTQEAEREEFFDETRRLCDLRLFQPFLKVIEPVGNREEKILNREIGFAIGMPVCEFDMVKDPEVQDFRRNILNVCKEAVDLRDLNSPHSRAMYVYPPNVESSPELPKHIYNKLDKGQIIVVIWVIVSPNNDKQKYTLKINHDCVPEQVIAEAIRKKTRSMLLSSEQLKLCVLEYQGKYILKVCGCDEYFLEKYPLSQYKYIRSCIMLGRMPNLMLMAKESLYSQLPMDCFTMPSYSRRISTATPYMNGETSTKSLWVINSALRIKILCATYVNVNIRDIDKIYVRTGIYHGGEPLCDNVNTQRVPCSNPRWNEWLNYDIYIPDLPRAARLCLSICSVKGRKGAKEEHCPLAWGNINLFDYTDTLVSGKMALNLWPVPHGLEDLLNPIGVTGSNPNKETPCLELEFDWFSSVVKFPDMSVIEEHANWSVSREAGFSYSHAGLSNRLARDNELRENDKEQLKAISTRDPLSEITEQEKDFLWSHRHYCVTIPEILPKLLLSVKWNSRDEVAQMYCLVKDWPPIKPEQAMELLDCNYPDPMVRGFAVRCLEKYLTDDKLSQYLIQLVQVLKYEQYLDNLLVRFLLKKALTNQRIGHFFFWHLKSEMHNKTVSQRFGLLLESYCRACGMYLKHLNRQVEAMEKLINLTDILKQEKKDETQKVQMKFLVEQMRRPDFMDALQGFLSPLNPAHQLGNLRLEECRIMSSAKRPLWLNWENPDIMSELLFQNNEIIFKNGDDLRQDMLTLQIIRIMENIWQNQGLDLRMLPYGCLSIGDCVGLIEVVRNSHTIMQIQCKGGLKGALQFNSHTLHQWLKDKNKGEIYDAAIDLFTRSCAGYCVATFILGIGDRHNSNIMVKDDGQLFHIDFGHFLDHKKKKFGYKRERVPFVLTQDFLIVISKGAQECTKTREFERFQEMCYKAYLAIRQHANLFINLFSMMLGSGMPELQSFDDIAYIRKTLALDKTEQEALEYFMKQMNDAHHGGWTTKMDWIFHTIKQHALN
Class I PI3K alpha isoform (PI3Kα) versus Class I PI3K beta, delta, and gamma isoforms, sequence (P27986 whole entry partner, canonical isoform): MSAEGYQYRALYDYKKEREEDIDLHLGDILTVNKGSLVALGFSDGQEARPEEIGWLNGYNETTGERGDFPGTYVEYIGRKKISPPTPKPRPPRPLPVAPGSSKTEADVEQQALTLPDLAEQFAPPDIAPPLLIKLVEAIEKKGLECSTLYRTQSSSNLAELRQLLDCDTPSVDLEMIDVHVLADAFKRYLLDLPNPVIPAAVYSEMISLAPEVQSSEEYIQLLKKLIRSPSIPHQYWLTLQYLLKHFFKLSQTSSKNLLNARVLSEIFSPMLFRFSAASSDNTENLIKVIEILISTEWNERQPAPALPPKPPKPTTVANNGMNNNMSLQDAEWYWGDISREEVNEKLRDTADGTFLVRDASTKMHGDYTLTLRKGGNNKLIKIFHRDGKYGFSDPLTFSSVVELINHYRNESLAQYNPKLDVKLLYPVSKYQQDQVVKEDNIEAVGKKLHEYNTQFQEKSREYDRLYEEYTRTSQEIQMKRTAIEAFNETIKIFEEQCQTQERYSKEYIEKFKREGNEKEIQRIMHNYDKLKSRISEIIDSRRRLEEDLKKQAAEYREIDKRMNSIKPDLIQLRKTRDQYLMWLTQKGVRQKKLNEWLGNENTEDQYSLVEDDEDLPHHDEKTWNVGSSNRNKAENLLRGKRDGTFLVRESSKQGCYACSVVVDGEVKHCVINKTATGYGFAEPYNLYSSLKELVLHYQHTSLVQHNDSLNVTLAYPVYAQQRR

difference between two inhibitors (mean IC50 values of inavolisib and alpelisib) [3]: 6 fold
difference between the mean IC50 values of inavolisib and alpelisib [4]: ~20 fold
SMILES: C[C@H](Nc1ccc2c(c1)OCCn1cc(N3C(=O)OC[C@H]3C(F)F)nc1-2)C(N)=O [inavolisib, (S)-2-((2-((S)-4-(difluoromethyl)-2-oxooxazolidin-3-yl)-5,6-dihydrobenzo[f]imidazo[1,2-d][1,4]oxazepin-9-yl)amino)propanamide]
Growth Effect Duration [1]: >31.0
Growth Rate Contrast [1]: −0.069
Growth Contrast ([1]; 9 mice per group): −0.086
less potent biochemical inhibition for other Class I PI3K beta, delta, and gamma isoforms (selectivity for PI3Kα) [2]: > 300 fold
